Structures can show the parent of a compound that is named as a salt.
What was measured:
[1] = Plasma tandospirone concentration measured after observation and evaluation of behavior in PD-LID rats; assay type: in vivo, rat; details: continuous subcutaneous infusion 60 mg/mL citrate
Procedure: 50 μL of rat plasma sample was fractionated into a polypropylene microtube. 50 μL of methanol (50 μL of standard solution for calibration curve sample) and 200 μL of internal standard solution (Bezafibrate methanol solution: 200 nmol/L, 200 μL of methanol for blank sample) are added and stirred for about 10 seconds with a mixer. This is centrifuged (4° C., 4500 rpm, 10 min), and then the supernatant is subjected to vacuum filtration using a filter (FastRemover MF 0.2 μm). 70 μL of aqueous 10 mmol/L ammonium acetate solution is added to 70 μL of the resulting filtrate and stirred for about 10 seconds with a mixer to prepare a measurement sample.
When evaluating a tape agent, the hair on the abdominal region of rats was shaved before the evaluation date. The tape agent of formulation 2 was applied to the abdominal regions of rats on the evaluation date at 60 cm^2/kg (37 mg/kg). After 4 hours from application, a levodopa containing solution was intraperitoneally administered to observe and evaluate the behavior. Individuals with 50% or more of the tape agent coming off during the test were excluded from analysis.
After 4 hours from application, a levodopa containing solution was intraperitoneally administered to observe and evaluate the behavior. Individuals with 50% or more of the tape agent coming off during the test were excluded from analysis.
After 4 hours, a levodopa containing solution was administered to observe and evaluate the behavior.
After 4 hours, a levodopa containing solution was administered to observe and evaluate the behavior (day 0 of implanting the pump). Repeat administration of once daily levodopa containing solution was continued thereafter. The behavior was also observed and evaluated on day 13 of implanting the pump.

[2] = system: PD-LID rat model (6-OHDA-lesioned rats); test: Long-term dyskinesia improving effect of continuous subcutaneous infusion in PD-LID rat model; assay type: in vivo
Procedure: Individuals with a total AIMs score of less than 15 were excluded from the test as not manifesting a dyskinesia-like symptom. The behavior was observed and evaluated before the drug evaluation date. The rats were assigned to each dosing group by using the 3 hour AIMs score, Locomotive behavior score, and rat body weight as indicators, which were used for evaluation of drugs. […] The prepared solution was used after injection into an ALZET® Osmotic Pump MODEL 2ML2 (4.53 μL/hour; DURECT) for releasing a drug solution at a stable rate for 2 weeks. […] After 4 hours, a levodopa containing solution was administered to observe and evaluate the behavior (day 0 of implanting the pump). Repeat administration of once daily levodopa containing solution was continued thereafter. The behavior was also observed and evaluated on day 13 of implanting the pump. […] The results in the drawings are indicated in terms of mean value±standard error of the total AIMs scores in 3 hours. The test results were statistically analyzed using Wilcoxon rank sum test using the total AIMs score as a parameter. ** indicates p<0.01, meaning that there is a significant difference compared to the solvent administration group.

6-OHDA-lesioned rats = test: Prevention/delay of manifestation of dyskinesia by continuous subcutaneous infusion in 6-OHDA-lesioned rats; assay type: in vivo, rat
Procedure: The prepared solution was used after injection into an ALZET® Osmotic Pump MODEL 2ML2 (4.53 μL/hour; DURECT).
6-OHDA-lesioned rats were assigned to each administration group using the number of apomorphine hydrochloride hemihydrate induced rotations and body weight as indicators. […] The osmotic pump implanted subcutaneously was retrieved after the observation and evaluation of behavior on day 15. The behavior was also observed and evaluated on the following day (day 16 of repeated administration of levodopa).
The test results were statistically analyzed by comparison with the solvent administration group using Steel test with the total AIMs score on day 16 of repeated levodopa administration as the parameter. * indicates p<0.05 and ** indicates p<0.01, meaning that there is a significant difference compared to the solvent administration group.

[3] = system: PD-LID rat model (6-OHDA-lesioned rats); test: Oral administration of tandospirone citrate on dyskinesia-like symptoms in PD-LID rat model; assay type: in vivo; details: oral 10, 30, or 100 mg/kg as citrate concentration, levodopa 5 minutes later
Procedure: The behavior was observed and evaluated using the same method as Example 2. […] After 5 minutes, a levodopa containing solution was intraperitoneally administered, and the behavior was observed and evaluated. The results in the drawings are indicated in terms of mean value±standard error. The test results were statistically analyzed by comparison with the solvent administration group by Steel test using the total AIMs score in 3 hours and total AIMs score in 100 to 180 minutes as parameters. * indicates p<0.05, meaning that there is a significant difference. The dosage was described as a numerical value converted in terms of tandospirone free form.

[4] = system: PD-LID rat model (6-OHDA-lesioned rats); test: ON-time prolongation action (ON score, ON time without dyskinesia) in PD-LID rat model; assay type: in vivo
Procedure: To make a PD-LID rat model, a mixture of levodopa methyl ester hydrochloride (6 mg/kg; Sigma-Aldrich) dissolved in saline and benserazide hydrochloride (15 mg/kg; Sigma-Aldrich) (hereinafter, also referred to as “levodopa containing solution”) was intraperitoneally administered once daily to 6-OHDA-lesioned rats. The levodopa containing solution was repeatedly administered for 3 weeks or longer to observe and evaluate the behavior. […] The sum of the scores for Limb AIMs, Axial AIMs, and Orolingual AIMs in 3 hours was used as the total dyskinesia-like symptom (AIMs) score. Individuals with a total AIMs score of less than 10 were excluded from the test as not manifesting a dyskinesia-like symptom. The behavior was observed and evaluated before the drug evaluation date. The rats were assigned to each dosing group by using the 3 hour total dyskinesia-like symptom (AIMs) score, Locomotive behavior score, and rat body weight as indicators, which were used for evaluation of drugs. For an indicator of dyskinesia behavior, the sum of the Limb AIMs, Axial AIMs, and Orolingual AIMs at each evaluation point was used as the AIMs score. For the rotational behavior (ON score), Locomotive behavior at each evaluation point was used as an indicator. The total ON score in 3 hours was used as the total ON score. For ON time without dyskinesia, the period during which the AIMs score is 0 and Locomotive behavior is 1 or greater at each evaluation point was added. Duration of action of levodopa without a dyskinesia symptom (ON time without dyskinesia) refers to the aggregate time with no dyskinesia during the antiparkinsonian action effective time, i.e., “ON-time”, and defined as the time during which the dyskinesia symptom (AIMs) score is 0 and the rotational behavior (Locomotive behavior) score is 1 or greater at each evaluation point after levodopa administration. […] After 5 minutes, a levodopa containing solution was intraperitoneally administered, and the behavior was observed and evaluated. The results in the drawings are indicated in terms of mean value±standard error. The test results were statistically analyzed by comparison with the solvent administration group using the Steel test with the total ON score in 3 hours or ON time without dyskinesia as an indicator. ** indicates p<0.01, meaning that there is a significant difference. For evaluation of a tape agent, the abdominal regions of the rats were shaved prior to the evaluation date. […] After 4 hours from application, a levodopa containing solution was intraperitoneally administered to observe and evaluate the behavior. The results in the drawings are indicated in terms of mean value±standard error. Individuals with 50% or more of the tape agent coming off during the test were excluded from analysis. The test results were statistically analyzed by comparison with the placebo tape administration group using Wilcoxon rank sum test with the total ON score in 3 hours or ON time without dyskinesia as an indicator. * indicates p<0.05 and ** indicates […], meaning that there is a significant difference compared to the solvent oral administration group or the placebo tape administration group.

[5] = system: PD-LID rat model (6-OHDA-lesioned rats); test: Oral administration of tandospirone citrate on dyskinesia-like symptoms in PD-LID rat model; assay type: in vivo; details: oral 30 or 100 mg/kg
[6] = system: PD-LID rat model (6-OHDA-lesioned rats); test: Tandospirone metabolite 1-PP on dyskinesia-like symptoms in PD-LID rat model; assay type: in vivo; details: subcutaneous 10 or 30 mg/kg
Procedure: The behavior was observed and evaluated using the same method in Example 2. 1-PP dihydrochloride (Tokyo Chemical Industry) was dissolved in saline and subcutaneously administered to rats. After 5 minutes, a levodopa containing solution was intraperitoneally administered to observe and evaluate the behavior. The results in the drawings are indicated in terms of mean value±standard error. The test results were statistically analyzed by comparison with the solvent administration group by Steel test by using the total AIMs score in 3 hours and total AIMs score in 100 to 180 minutes as parameters.

[7] = oral 30 mg/kg and 100 mg/kg as citrate

Compound	mean value of plasma tandospirone concentrations (converted in terms of free form) ([1]; day 0 of implanting the pump)	mean value of plasma tandospirone concentrations (converted in terms of free form) ([1]; day 13 of implanting the pump)	dyskinesia-like symptoms (total AIMs score in 180 minutes) vs solvent ([2]; continuous subcutaneous infusion 60 mg/mL (mean 0.78 mg/kg/hour as citrate), day 0 of implanting the pump)	dyskinesia-like symptoms (total AIMs score in 180 minutes) vs solvent ([2]; continuous subcutaneous infusion 60 mg/mL citrate, day 13 of implanting the pump)	increase in total AIMs score associated with repeated administration of levodopa vs solvent (6-OHDA-lesioned rats; continuous subcutaneous infusion 30 mg/mL (mean 0.41 mg/kg/hour) or 60 mg/mL (mean 0.83 mg/kg/hour), days 3-15)	total AIMs score on the day after completion of administration (day 16) vs solvent (6-OHDA-lesioned rats; continuous subcutaneous infusion 30 or 60 mg/mL, pump retrieved day 15)	total AIMs score vs solvent [3]	ON time without dyskinesia for 180 minutes vs solvent [4, 7]	total ON score after 180 minutes of levodopa administration vs solvent [4, 7]	ON-time without dyskinesia for 180 minutes (Locomotive behavior ≥1, and AIMs score=0) ([4]; oral 100 mg/kg as citrate)	total ON score ([4]; oral 100 mg/kg as citrate)	clear dyskinesia-like symptom (mean AIMs score of 2 or greater) at 120 to 140 minutes after levodopa administration [5]	total AIMs score in 100 to 180 minutes vs solvent [5]	clear dyskinesia-like symptom (mean AIMs score of 2 or greater) at 120 to 140 minutes after levodopa [6]	total AIMs score in 100 to 180 minutes vs solvent [6]	total AIMs score vs solvent ([6]; levodopa 5 minutes later)
tandospirone citrate	281 ng/mL	143 ng/mL	Significant improvement	significant improvement	suppressed the increase in total AIMs score	significantly lower	significant change in the total AIMs score was not observed	increase in ON time without dyskinesia	increase in the total ON score	significant prolongation	increase in the total ON score	clear dyskinesia-like symptom (mean AIMs score of 2 or greater) was observed	significant increase	–	–	–
c1cnc(N2CCNCC2)nc1 [1-PP dihydrochloride, 1-(2-Pyrimidyl) piperazine]	–	–	–	–	–	–	–	–	–	–	–	–	–	clear dyskinesia-like symptom (mean AIMs score of 2 or greater) was observed	increasing trend in the total AIMs score, albeit not significant	significant change in the total AIMs score was not found

Reference: patent US11559525B2, “Therapeutic drug for dyskinesia” (Sumitomo Pharma Co., Ltd., priority 2019, dated 2023)
